Results published in US20220411794A1, “RNA OLIGONUCLEOTIDES FOR PREVENTING AGGREGATION OF PROTEINS” (Universitaet Wien, priority 2019, published 2022).

Target: T1, human insulin (Homo sapiens, UniProt P01308)
T1 construct: purchased SIGMA
Assay: Human insulin aggregation assay (relative solubility)
Type: physicochemical
Conditions: 86 μM insulin : 20 μM RNA (molar ratio […]:1)
Description: The insulin aggregation assay was performed in 150 mM Tris-HCl pH 7.5. Aggregation was monitored at 360 nm (excitation: 1 nm bandwidth, emission: 10 nm bandwidth) in macro-cuvettes (1500 μl) with a pathlength of 10 mm. 86 μM human insulin (SIGMA) with or without 20 μM RNA were pre-incubated at 30° C. and the aggregation reaction was started by the addition of dithiothreitol (DTT) to a final concentration of 15 mM.

T1 sequence (P01308 25-54 limits assumed): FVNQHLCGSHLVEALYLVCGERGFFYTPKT

RNA1: GUGGAGGCGCUGUACCUGGUGUGCGGAGAGCGCGGC; fragment of native own mRNA coding for insulin β-chain region VEALYLVCGERG (RNA, backbone not given here)
increase in the relative solubility of insulin: 21%
